This test addresses human PAD4 (hPAD4) (Homo sapiens, UniProt Q9UM07). Nature of the test: RFMS human PAD4 functional assay (rapid-fire mass spectrum). The format is biochemical. The note with it: 5 nM hPAD4 enzyme, 250 μM BAEE, 50 μM Calcium; 30 min preincubation, 90 min reaction at 37° C. The gist of the method:
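PAD4 (10 nM) preincubated 30 min with compound (top final 50 μM), then BAEE substrate added in pH 7.5 HEPES buffer with DTT, 50 μM calcium, TPEN; 90 min at 37° C. After TCA quench, citrulline derivatized with phenyl glyoxal (4 mM final, 30 min, 37° C) and quantified by RapidFire MS against internal standard.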

One may read the IC50 as the concentration needed to halve the response being measured.

Each structure is given as a SMILES string.

Chain of human PAD4 (hPAD4) (Q9UM07 whole entry): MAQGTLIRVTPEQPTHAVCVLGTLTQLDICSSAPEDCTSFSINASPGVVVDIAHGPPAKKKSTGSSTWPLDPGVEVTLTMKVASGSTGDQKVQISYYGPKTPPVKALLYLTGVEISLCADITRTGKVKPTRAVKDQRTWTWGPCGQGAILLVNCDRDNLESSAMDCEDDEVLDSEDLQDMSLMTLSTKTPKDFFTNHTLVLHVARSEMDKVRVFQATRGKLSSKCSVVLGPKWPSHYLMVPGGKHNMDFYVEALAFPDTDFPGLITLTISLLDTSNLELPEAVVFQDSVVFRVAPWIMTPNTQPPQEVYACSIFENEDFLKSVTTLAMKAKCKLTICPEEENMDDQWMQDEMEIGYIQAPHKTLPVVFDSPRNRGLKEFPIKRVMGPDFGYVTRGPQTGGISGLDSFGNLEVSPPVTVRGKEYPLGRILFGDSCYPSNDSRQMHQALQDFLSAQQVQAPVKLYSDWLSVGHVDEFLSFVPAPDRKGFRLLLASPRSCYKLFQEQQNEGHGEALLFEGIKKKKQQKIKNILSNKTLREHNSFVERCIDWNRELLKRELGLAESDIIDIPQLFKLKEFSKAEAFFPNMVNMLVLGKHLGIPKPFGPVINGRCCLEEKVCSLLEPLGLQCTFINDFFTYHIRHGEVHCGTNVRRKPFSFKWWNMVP

Regarding `Cn1cc(Cn2c(-c3cc4ccccc4n3CC3CC3)nc3cc(C(=O)N4CC5CCC4[C@@H]5N)cc(F)c32)cn1` (stereo partly drawn) [Example 483, (7R)-2-{2-[1-(cyclopropylmethyl)-1H-indol-2-yl]-7-fluoro-1-[(1-methyl-1H-pyrazol-4-yl)methyl]-1H-1,3-benzodiazole-5-carbonyl}-2-azabicyclo[2.2.1]heptan-7-amine], the IC50 came to 0.03 µM.

In the case of `CCc1ccccc1-c1nc2cc(C(=O)N3C[C@H]4CC[C@@H]3[C@@H]4N)cc(OC)c2n1CC1CN(c2ccnc(C#N)n2)C1` [Example 319, 4-[3-({5-[(1R,4R,7R)-7-amino-2-azabicyclo[2.2.1]heptane-2-carbonyl]-2-(2-ethylphenyl)-7-methoxy-1H-1,3-benzodiazol-1-yl}methyl)azetidin-1-yl]pyrimidine-2-carbonitrile], the IC50 is 1.3 µM.

On to `COc1cc(C(=O)N2CC3CCC2[C@@H]3N)cc2nc(-c3cc4cccnc4n3CC3CC3)n(CC3CN(C(=O)[C@H]4C[C@@H]4C)C3)c12` (stereo partly drawn) [Example 106, (1R,4R,7R)-2-{2-[1-(cyclopropylmethyl)-1H-pyrrolo[2,3-b]pyridin-2-yl]-7-methoxy-1-({1-[(1S,2S)-2-methylcyclopropanecarbonyl]aze-tidin-3-yl}methyl)-1H-1,3-benzodiazole-5-carbonyl}-2-azabicyclo[2.2.1]heptan-7-amine], for which the IC50 stood at 0.032 µM.

For the compound `COc1cc(C(=O)N2C[C@H]3CC[C@@H]2[C@@H]3N)cc2nc(-c3cc4cccnc4n3CC3CC3)n(C3CCN(C(=O)c4cnc(C#N)nc4)CC3)c12` [Example 229, 5-(4-{5-[(1R,4R,7R)-7-amino-2-azabicyclo[2.2.1]heptane-2-carbonyl]-2-[1-(cyclopropylmethyl)-1H-pyrrolo[2,3-b]pyridin-2-yl]-7-methoxy-1H-1,3-benzodiazol-1-yl}piperidine-1-carbonyl)pyrimidine-2-carbonitrile], the IC50 is 0.219 µM.

For the compound `COc1cc(C(=O)N2C[C@H](N)C[C@@H](F)C2)cc2nc(-c3cc4ccccc4n3CC3CC3)n(CC3CN(C(=O)c4ccc(C#N)cc4)C3)c12` [Example 90, 4-[3-({5-[(3R,5R)-3-amino-5-fluoropiperidine-1-carbonyl]-2-[1-(cyclopropylmethyl)-1H-indol-2-yl]-7-methoxy-1H-1,3-benzodiazol-1-yl}methyl)azetidine-1-carbonyl]benzonitrile], the IC50 came to 0.028 µM.

In the case of `COc1cccc(-n2cc(Cn3c(-c4cc5cccnc5n4CC4CC4)nc4cc(C(=O)N5CC6CCC5[C@@H]6N)cc(OC)c43)cn2)n1` (stereo partly drawn) [Example 365, (7R)-2-{2-[1-(cyclopropylmethyl)-1H-pyrrolo[2,3-b]pyridin-2-yl]-7-methoxy-1-{[1-(6-methoxypyridin-2-yl)-1H-pyrazol-4-yl]methyl}-1H-1,3-benzodiazole-5-carbonyl}-2-azabicyclo[2.2.1]heptan-7-amine], the IC50 is 0.027 µM.

With `N[C@@H]1C2CCC1N(C(=O)c1ccc3c(c1)nc(-c1cc4ccccc4n1CC1CC1)n3CC1CN(C(=O)c3ccccc3)C1)C2` (stereo partly drawn) [Example 170, (1R,4R,7R)-2-{1-[(1-benozylazetidin-3-yl)methyl]-2-[1-(cyclopropylmethyl)-1H-indol-2-yl]-1H-1,3-benzodiazol-5-carbonyl}-2-azabicyclo[2.2.1]heptan-7-amine], the IC50 came out at 0.035 µM.

With `COc1cc(C(=O)N2CC3CCC2[C@@H]3N)cc2nc(-c3cc4cccnc4n3CC3CC3)n(Cc3cnn(-c4ncccn4)c3)c12` (stereo partly drawn) [Example 398, (7R)-2-{2-[1-(cyclopropylmethyl)-1H-pyrrolo[2,3-b]pyridin-2-yl]-7-methoxy-1-{[1-(pyrimidin-2-yl)-1H-pyrazol-4-yl]methyl}-1H-1,3-benzodiazole-5-carbonyl}-2-azabicyclo[2.2.1]heptan-7-amine], the IC50 came out at 0.054 µM.

Regarding `COc1nccc(N2CC(n3c(-c4cc5cccnc5n4CC4CC4)nc4cc(C(=O)N5C[C@H]6CC[C@@H]5[C@@H]6N)cc(OC)c43)C2)n1` [Example 71, (1R,4R,7R)-2-{2-[1-(cyclopropylmethyl)-1H-pyrrolo[2,3-b]pyridin-2-yl]-7-methoxy-1-[1-(2-methoxypyrimidin-4-yl)azetidin-3-yl]-1H-1,3-benzodiazole-5-carbonyl}-2-azabicyclo[2.2.1]heptan-7-amine], the IC50 amounted to 0.111 µM.

As for `COc1cc(C(=O)N2C[C@H](N)C[C@@H](F)C2)cc2nc(-c3cc4cccnc4n3CC3CC3)n(Cc3cnn(-c4cccc(O)n4)c3)c12` [Example 407, 6-[4-({5-[(3R,5R)-3-amino-5-fluoropipendine-1-carbonyl]-2-[1-(cyelopropylmethyl)-1H-pyrrolo[2,3-b]pyridin-2-yl]-7-methoxy-1H-1,3-benzodiazol-1-yl}methyl)-1H-pyrazol-1-yl]pyridin-2-ol], the IC50 is 0.072 µM.

For `N#Cc1ccc(C(=O)N2CC(Cn3c(-c4cc5ccccc5n4CC4CC4)nc4cc(C(=O)N5C[C@H]6CC[C@@H]5[C@@H]6N)ccc43)C2)cc1` [Example 165, 4-[3-({5-[(1R,4R,7R)-7-amino-2-azabicyclo[2.2.1]heptane-2-carbonyl]-2-[1-(cyclopropylmethyl)-1H-indol-2-yl]-1H-1,3-benzodiazol-1-yl}methyl)azetidine-1-carbonyl]benzonitrile], the IC50 came out at 0.03 µM.

Regarding `COc1cc(C(=O)N2C[C@H]3CC[C@@H]2[C@@H]3N)cc2nc(-c3cc4ccccc4n3CC3CC3)n(CC3CN(c4nccnc4C#N)C3)c12` [Example 64, 3-[3-({5-[(1R,4R,7R)-7-amino-2-azabicyclo[2.2.1]heptane-2-carbonyl]-2-[1-(cyclopropylmethyl)-1H-indol-2-yl]-7-methoxy-1H-1,3-benzodiazol-1-yl}methyl)azetidin-1-yl]pyrazine-2-carbonitrile], the IC50 stood at 0.023 µM.

For `COc1cc(C(=O)N2CC3CCC2[C@@H]3N)cc2nc(-c3cc4ccccc4n3CC3CC3)n(Cc3cnn(CC#N)c3)c12` (stereo partly drawn) [Example 405, 2-[4-({5-[(7R)-7-amino-2-azabicyclo[2.2.1]heptane-2-carbonyl]-2-[1-(cyclopropylmethyl)-1H-indol-2-yl]-7-methoxy-1H-1,3-benzodiazol-1-yl}methyl)-1H-pyrazol-1-yl]acetonitrile], the half-inhibitory concentration (IC50) came out at 0.066 µM.

For the compound `COc1cc(C(=O)N2C[C@H]3CC[C@@H]2[C@@H]3N)cc2nc(-c3cc4ccccc4n3CC3CC3)n(Cc3cc(C)nn3C)c12` [Example 252, (1R,4R,7R)-2-{2-[1-(cyclopropylmethyl)-1H-indol-2-yl]-1-[(1,3-dimethyl-1H-pyrazol-5-yl)methyl]-7-methoxy-1H-1,3-benzodiazole-5-carbonyl}-2-azabicyclo[2.2.1]heptan-7-amine], the IC50 was found to be 0.022 µM.

For the compound `COc1cc(C(=O)N2CC3CCC2[C@@H]3N)cc2nc(-c3cc4ccccc4n3CC3CC3)n(CC3CN(C(=O)c4cnc(C#N)nc4)C3)c12` (stereo partly drawn) [Example 463, 5-[3-({5-[(7R)-7-amino-2-azabicyclo[2.2.1]heptane-2-carbonyl]-2-[1-(cyclopropylmethyl)-1H-indol-2-yl]-7-methoxy-1H-1,3-benzodiazol-1-yl}methyl)azetidine-1-carbonyl]pyrimidine-2-carbonitrile], the IC50 turned out to be 0.073 µM.

As to `COc1cc(C(=O)N2C[C@H]3CC[C@@H]2[C@@H]3N)cc2nc(-c3cc4cccnc4n3CC3CC3)n(CC3CN(C(=O)c4ccncn4)C3)c12` [Example 111, (1R,4R,7R)-2-{2-[1-(cyclopropylmethyl)-1H-pyrrolo[2,3-b]pyridin-2-yl]-7-methoxy-1-{[1-(pyrimidine-4-carbonyl)azetidin-3-yl]methyl}-1H-1,3-benzodiazole-5-carbonyl}-2-azabicyclo[2.2.1]heptan-7-amine], the IC50 turned out to be 0.051 µM.

With `COc1cc(C(=O)N2CC3CCC2[C@@H]3N)cc2nc(-c3csc4ccc(Cl)cc34)n(CC3CN(c4cncc(C(N)=O)c4)C3)c12` (stereo partly drawn) [Example 322, 5[3-({5-[(1R,4R,7R)-7-amino-2-azabicyc1o[2.2.1]heptane-2-carbonyl]-2-(5-ch1oro-1-benzothiophen-3-yl)-7-methoxy-1H-1,3-benzodiazol-1-yl}methyl)azetidin-1-yl]pyridine-3-carboxamide], the IC50 is 2.05 µM.

Consider `COc1cc(C(=O)N2C[C@H]3CC[C@@H]2[C@@H]3N)cc2nc(-c3cc4cccnc4n3CC3CC3)n(CC3CN(c4cncc(C#N)c4)C3)c12` [Example 7, 5-[3-({5-[(1R,4R,7R)-7-amino-2-azabicyclo[2.2.1]heptane-2-carbonyl]-2-[1-(cyclopropylmethyl)-1H-pyrrolo[2,3-b]pyridin-2-yl]-7-methoxy-1H-1,3-benzodiazol-1-yl}methyl)azetidin-1-yl]pyridine-3-carbonitrile], for which the IC50 turned out to be 0.094 µM.

For `COC(=O)NCCn1c(-c2cc3cccnc3n2CC2CC2)nc2cc(C(=O)N3C[C@H]4CC[C@@H]3[C@@H]4N)cc(OC)c21` [Example 284, methyl N-(2-{5-[(1R,4R,7R)-7-amino-2-azabicyclo[2.2.1]heptane-2-carbonyl]-2-[1-(cyclopropylmethyl)-1H-pyrrolo[2,3-b]pyridin-2-yl]-7-methoxy-1H-1,3-benzodiazol-1-yl}ethyl)carbamate], the IC50 was 0.925 µM.

As for `COc1cc(C(=O)N2C[C@H]3CC[C@@H]2[C@@H]3N)cc2nc(-c3cc4ccccc4n3C)n(CC3CN(c4cncc(C#N)n4)C3)c12` [Example 41, 6-[3-({5-[(1R,4R,7R)-7-amino-2-azabicyclo[2.2.1]heptane-2-carbonyl]-7-methoxy-2-(1-methyl-1H-indol-2-yl)-1H-1,3-benzodiazol-1-yl}methyl)azetidin-1-yl]pyrazine-2-carbonitrile], the IC50 stood at 0.1 µM.

On to `COc1cc(C(=O)N2CC3CCC2[C@@H]3N)cc2nc(-c3cc4ccc(C(C)O)cc4n3CC3CC3)n(CC3CN(C(=O)c4ccccc4)C3)c12` (stereo partly drawn) [Example 521, l-(2-{5-[(7R)-7-amino-2-azabicyclo[2.2.1]heptane-2-carbonyl]-1-[(1-benzoylazetidin-3-yl)methyl]-7-methoxy-1H-1,3-benzodiazol-2-yl}-1-(cyclopropylmethyl)-1H-indol-6-yl)ethan-1-ol], for which the IC50 was 0.086 µM.
